The structures appear in SMILES notation.

This note sets out measurements from patent US6979682B2, “Platelet-activating factor antagonist inhibition of angiogenesis and tumor growth induced by basic fibroblast” (Board of Supervisors of Louisiana State University and …, priority 2001, dated 2005).

The assay relates to human prostatic carcinoma cells, PC-3 (subcutaneous xenografts). As to the kind of experiment: subcutaneous PC-3 xenografts in nude mice, tumor volume. It counts as in vivo, NCr athymic nude mice. The method, then: Pathogen-free 4 to 6 week-old male NCr athymic nude mice (Taconic, Germantown, N.Y.) were housed in sterilized, filter-topped cages kept in laminar flow isolators (Forma Scientific, Marietta, Ohio), and fed autoclaved food and water ad libitum. Four animals were housed in each cage. Mice were acclimated to the vivarium for one week prior to their use in study protocols. All procedures involving the mice were performed under sterile conditions in a laminar flow hood (Forma Scientific). All studies were approved by the institutional animal care and use committee.
Human PC-3 prostate cancer cells (2×10^6 cells; American Type Culture Collection CRL-1435) were inoculated subcutanteously into the flanks of nude mice in 0.1 ml HBSS (Hank's balanced salt solution) (Life Technologies). For implantation of orthotopic 201T cells, animals were fully anesthetized in a Harvard small animal anesthesia chamber using nebulized Metafane (Pitman Moore, Inc., Washington Crossing, N.J.). […] The needle was advanced through the chest wall into the lung tissue, and the tumor cell inoculum of 2×10^6 cells was then dispersed in a final volume of 0.1 ml HBSS/Matrigel (1:1 ratio). Animals were allowed to recover from anesthesia for approximately 10 min under heat lamps to maintain body temperature. The orthotopic implantation technique is further described in Hamide et al., 1997. For tumors implanted subcutaneously, tumors were measured in a blind fashion with dial calipers, and the volume was calculated using the formula ½*π(W*L*H).
Potential anti-angiogenic and anti-tumor effects of the PAF antagonist BN-50730 were tested on human tumor xenografts in the NCr athymic nude mice. Thirty mice were implanted with subcutaneous human prostatic carcinoma cells, PC-3, at day 0, and were randomized into three groups. Mice were treated either with a placebo, 30 mg/kg BN-50730, or 60 mg/kg BN-50730 at days 2, 4, 6, 8, 10, and 12 as shown in the schedule of FIG. 2b. Animals were sacrificed at day 13, 17, 21 and 28, and the volumes of the subcutaneous tumors were measured using dial calipers and the formula ½*π(W*L*H) as described in Example 1.
In a separate experiment to determine the effects of a high dose of LAU-8080 dissolved in 2-hydroxypropyl-β-cyclodextran (instead of DMSO) on PC-3 xenografts, mice were treated as shown in FIG. 4b. Tumors were implanted subcutaneously at day 0. The mice were then divided into two groups to receive injections of either a placebo or 120 mg/kg LAU-8080 on days 1, 3, 5, 8, 10, and 12. Mice were sacrificed on days 6, 8, 11, 13, 15, 18, 20, 21, and 25; and the volumes of the tumors were measured as described above.
Tumors were implanted at day 0. The tumors were allowed to expand to 100 mm^3 before treatment was initiated as shown in the schedule in FIG. 10b. Tumor measurements were begun on day 9. Treatments of the different groups were on days 13, 15, 17, 20, 22, 24, 27, 29, and 31. Tumor measurements were taken on days 13, 16, 20, 24, 27, 31, 37, and 40.

As to `COc1ccc(NC(=O)N2CCc3c(sc4c3C(c3ccccc3Cl)=NCc3nnc(C)n3-4)C2)cc1` [BN-50730, tetrahydro-4,7,8,10 methyl-1 (chloro-2 phenyl)-6 (methoxy-4 phenyl-carbomoyl)-9 pyrido [4′,3′-4,5] thieno [3,2-f] triazolo-1,2,4[4,3-α]diazepine-1,4], for the setting “30 mg/kg or 60 mg/kg at days 2, 4, 6, 8, 10, 12, measured day 13, 17, 21, 28, vs placebo, p<0.001”, the “tumor size (volume) of subcutaneous PC-3 xenografts” value is listed as “significant dose-dependent reduction in tumor size”. For the same molecule, for the setting “120 mg/kg in 2-hydroxypropyl-β-cyclodextran on days 1, 3, 5, 8, 10, 12, vs placebo, p=0.0001, F-test”, the “tumor volume of subcutaneous PC-3 xenografts, high dose” value is listed as “significantly smaller tumors”. Further, under “120 mg/kg on days 1, 3, 5, 8, 10, 12, PC-3 xenografts”, the “time at which tumors began to increase in size” value is given as “did not begin to increase in size until after treatment was stopped at day 12”. Moreover, the “tumor size, BN-50730-treated vs IFN-2a-treated mice” value (established PC-3 xenografts, 120 mg/kg vs 1,000 U, p=0.089, F-test) was “no significant difference”. The “tumor size of established PC-3 xenografts vs control animals” value (tumors expanded to 100 mm^3 before treatment, treatment days 13-31, 120 mg/kg BN-50730 and/or 1,000 U IFN-2a, p<0.001, F-test) is listed as “significantly smaller tumors”.
